The text below walks through data of article PMC11768251, “Τhiazolidine-4-One Derivatives with Variable Modes of Inhibitory Action Against DPP4, a Drug Target with Multiple Activities and Established Role in Diabetes Mellitus Type II” (Pharmaceuticals, 2025).

Data set [1] concerns the target T1, DPP4 (Homo sapiens, UniProt P27487). Kind of data set: In vitro DPP4 inhibition assay, fluorometric, H-Gly-Pro-amidomethyl coumarin substrate. The following applies: for logIC50: Figure 4, competitive inhibitors.
Protocol: The compounds were screened for their inhibitory activity against DPP4 by a fluorometric assay, measuring the hydrolysis rate of the substrate Gly-Pro-amidomethyl coumarin in the absence and presence of the inhibitor. […] DPP-4 activity was assessed by measuring the hydrolysis rate of the substrate H-Gly-Pro-amidomethyl coumarin. The resulting fluorescent product, 7-Amino-4-Methyl Coumarin (AMC), was monitored with a Tecan Pro2000 microplate fluorescence reader (Tecan Ltd, Zurich, Switzerland) at an excitation wavelength of 360 nm and an emission wavelength of 460 nm, with measurements taken every 60 s for 30 min. The inhibitors, dissolved in DMSO, were added to the reaction buffer (20 mM Tris-HCl, pH 8, 100 mM NaCl, and 1 mM EDTA) at 10 µL per reaction, along with 0.17 µg/mL of enzyme, and incubated for 10 min. After incubation, 50 µL of the appropriate substrate concentration was added, bringing the total reaction volume to 100 µL. The inhibition (%) was calculated as ((Fc − Fi)/Fc) × 100, where Fc is the fluorescence value of the control (no inhibitor-total activity) and Fi is the fluorescence value in the presence of the inhibitor. […] The volume of 10 μL DMSO was added to the total activity control instead of the inhibitor. A blank containing all other components except for the enzyme was abstracted in all cases. Each determination was performed in triplicate.
Data set [2] has as its target T1, DPP4. Put plainly: Inhibition kinetic analysis of DPP4 (Lineweaver–Burk plot). In kind it is biochemical. The following applies: for Κm of the enzyme in the presence of the compound: without compound 49.7 ± 3.8; for Inhibition Mode: from Lineweaver–Burk plot, substrate 17–80 μM. The procedure: To further investigate the mode of inhibition, Lineweaver–Burk curves were prepared for some of the compounds.
The concentration range of the substrate (H-Gly-Pro-AMC) was 17–80 μM, and the final concentration of DPP-4 was 0.17 µg/mL. The maximum enzymatic reaction rate (Vmax) and Michaelis constant (Km) were calculated according to the Lineweaver–Burk plot.

For data set [3] the following is noted: cited from earlier work.
[4] abbreviates: read-out: % Inhibition, 50 μΜ Substrate.
The mark [5] stands for this setting: read-out: % Inhibition, 100 μΜ Substrate.
[6] abbreviates: compound concentration 15.000 μΜ.
Setting [7] is: compound concentration 0.080 μΜ.
Where [8] appears, read: compound concentration 0.100 μΜ.

Like-named read-outs stand apart in the source and are kept apart here. Some results are limits rather than exact numbers.

T1 sequence (P27487 whole entry): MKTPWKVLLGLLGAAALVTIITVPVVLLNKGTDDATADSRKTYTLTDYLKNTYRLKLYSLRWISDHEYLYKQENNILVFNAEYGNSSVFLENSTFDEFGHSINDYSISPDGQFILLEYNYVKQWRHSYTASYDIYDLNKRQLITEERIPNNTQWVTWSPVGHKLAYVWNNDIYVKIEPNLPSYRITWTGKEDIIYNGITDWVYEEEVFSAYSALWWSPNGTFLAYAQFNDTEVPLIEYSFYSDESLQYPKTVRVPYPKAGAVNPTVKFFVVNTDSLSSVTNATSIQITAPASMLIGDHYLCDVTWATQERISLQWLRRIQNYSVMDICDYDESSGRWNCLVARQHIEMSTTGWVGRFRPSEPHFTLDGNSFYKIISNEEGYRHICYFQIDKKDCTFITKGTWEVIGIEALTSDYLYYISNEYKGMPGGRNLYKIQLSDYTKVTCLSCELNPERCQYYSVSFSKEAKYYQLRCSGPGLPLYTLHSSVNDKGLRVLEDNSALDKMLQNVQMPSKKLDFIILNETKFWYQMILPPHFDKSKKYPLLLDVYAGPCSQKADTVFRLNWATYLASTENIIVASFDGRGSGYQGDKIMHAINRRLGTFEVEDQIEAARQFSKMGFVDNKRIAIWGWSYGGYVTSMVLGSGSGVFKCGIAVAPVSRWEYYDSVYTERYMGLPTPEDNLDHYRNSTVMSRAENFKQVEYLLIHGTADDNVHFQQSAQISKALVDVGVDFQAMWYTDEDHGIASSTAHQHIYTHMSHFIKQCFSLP

Consider `O=C1CSC(c2ccc(F)cc2)N1c1nc2ccc(Cl)cc2s1` (stereo not shown) [c1], for which, on DPP4 [1] (IC50, DPP4, triplicate), the IC50 (commonly the concentration at which inhibition is half-maximal) is above 20000 nM. The inhibition (usually the percentage by which the read-out fell short of the control) at 10 µM at DPP4 [1] (setting [4]) was determined as 33.5%; at DPP4 [1] (setting [5]), 11.4%.
On to `O=C1CSC(c2ccc([N+](=O)[O-])cc2)N1c1nc2ccc(Cl)cc2s1` (stereo not shown) [c2], for which the “Κm of the enzyme in the presence of the compound” value (“Κm of the enzyme” for short) at DPP4 [2] (setting [6]) is 87.6 ± 4.8. The “Inhibition Mode” value on DPP4 [2] is given as “competitive”. Further, inhibition on DPP4 [1] (IC50, DPP4, triplicate) was half-maximal at 8600 ± 200 nM (IC50). Further, the values for the inhibition at 10 µM on DPP4 [1] (setting [4]) and on DPP4 [1] (setting [5]) were 66% and 14.1%, respectively.
Regarding `O=C1CSC(c2ccc(Cl)cc2)N1c1nc2ccc(Cl)cc2s1` (stereo not shown) [c3], the logIC50 on DPP4 [1] is 4.097. The compound further had an IC50 against DPP4 [1] (IC50, DPP4, triplicate) of 12500 ± 200 nM. Further, the figures for the inhibition at 10 µM at DPP4 [1] (setting [4]) and on DPP4 [1] (setting [5]) were 41.6% and 28%, respectively.
`COc1ccc(C2SCC(=O)N2c2nc3ccc(Cl)cc3s2)cc1` (stereo not shown) [c4]: the “Κm of the enzyme” value on DPP4 [2] (setting [6]) stood at 19.4 ± 9.3. Moreover, the “Inhibition Mode” value on DPP4 [2] is recorded as “uncompetitive”. The compound further yielded a half-maximal inhibitory concentration (IC50) at DPP4 [1] (IC50, DPP4, triplicate) of 11500 ± 1500 nM. For the same compound, the figures for the inhibition at 10 µM on DPP4 [1] (setting [4]) and on DPP4 [1] (setting [5]) were 48.5% and 68.5%, respectively.
In the case of `O=C1CSC(c2c(Cl)cccc2Cl)N1c1nc2ccc(OC(F)(F)F)cc2s1` (stereo not shown) [h1], on DPP4 [1], the logIC50 came to 1.491. Besides, the IC50 against DPP4 [1] (IC50, DPP4, triplicate) amounted to 31 ± 3.8 nM. Further, the results for the inhibition at 0.08 µM on DPP4 [1] (setting [4]) and on DPP4 [1] (setting [5]) were 79.8% and 12%, respectively.
In the case of `O=C1CSC(c2c(F)cccc2Cl)N1c1nc2ccc(OC(F)(F)F)cc2s1` (stereo not shown) [h3, 3-(6-OCF3-benzo[d]thiazol-2-yl)-2-(2-F,6-Cl-phenyl) thiazolidin-4-one], on DPP4 [2] (compound concentration 0.010 μΜ), the “Κm of the enzyme” value is listed as 103.1 ± 9.3. In addition, the “Inhibition Mode” value at DPP4 [2] is “competitive”. On DPP4 [1], this compound gave a logIC50 of 1.079. Inhibition against DPP4 [1] (IC50, DPP4, triplicate) was half-maximal at 12 ± 0.5 nM (IC50). Moreover, the inhibition at 0.08 µM is 62% at DPP4 [1] (setting [4]) and 20% at DPP4 [1] (setting [5]).
As to `O=C1CSC(c2cccc(Cl)c2Cl)N1c1nc2ccc(OC(F)(F)F)cc2s1` (stereo not shown) [h4], the “Κm of the enzyme” value at DPP4 [2] (setting [7]) amounted to 98 ± 26.9. The “Inhibition Mode” value on DPP4 [2] is given as “competitive”. On DPP4 [1], this compound returned a logIC50 of 1.431. Moreover, the concentration for half-maximal inhibition (IC50) against DPP4 [1] (IC50, DPP4, triplicate) was determined as 27 ± 0.5 nM. The inhibition at 0.08 µM was 84.4% on DPP4 [1] (setting [4]) and 12.1% at DPP4 [1] (setting [5]).
With `O=C1CSC(c2ccc(Cl)cc2Cl)N1c1nc2ccc(OC(F)(F)F)cc2s1` (stereo not shown) [h5], the IC50 on DPP4 [1] (IC50, DPP4, triplicate) is 23.7 ± 2 nM. Moreover, the inhibition at 0.08 µM at DPP4 [1] (setting [4]) is 45%; on DPP4 [1] (setting [5]), 14%.
The like results for `O=C1CSC(c2ccc(F)cc2)N1c1nc2ccc(OC(F)(F)F)cc2s1` (stereo not shown) [h6] were, in that order, above 100 nM, 46.8% and 0%.
The like results for `O=C1CSC(c2ccc([N+](=O)[O-])cc2)N1c1nc2ccc(OC(F)(F)F)cc2s1` (stereo not shown) [h7] were, in that order, 25.5 ± 3 nM, 67% and 55%.
Regarding `O=C1CSC(c2ccc(Cl)cc2)N1c1nc2ccc(OC(F)(F)F)cc2s1` (stereo not shown) [h8], at DPP4 [2] (setting [7]), the “Κm of the enzyme” value is reported as 167.9 ± 15.8. Besides, the “Inhibition Mode” value at DPP4 [2] was “mixed”. On DPP4 [1] (IC50, DPP4, triplicate), this compound gave an IC50 of 90.6 ± 8.8 nM. Further, the inhibition at 0.08 µM at DPP4 [1] (setting [4]) came out at 45%; on DPP4 [1] (setting [5]) it was 26%.
`COc1ccc(C2SCC(=O)N2c2nc3ccc(OC(F)(F)F)cc3s2)cc1` (stereo not shown) [h9]: on DPP4 [2], the “Inhibition Mode” value is on record as “mixed”. On DPP4 [1] (IC50, DPP4, triplicate), the IC50 is 72.3 ± 5.2 nM. Also, the inhibition at 0.08 µM turned out to be 52.3% on DPP4 [1] (setting [4]) and 37.6% on DPP4 [1] (setting [5]).
`O=C1CSC(c2ccc(O)cc2)N1c1nc2ccc(OC(F)(F)F)cc2s1` (stereo not shown) [h10]: the IC50 against DPP4 [1] (IC50, DPP4, triplicate) was above 100 nM. Also, the figures for the inhibition at 0.08 µM at DPP4 [1] (setting [4]) and at DPP4 [1] (setting [5]) were 38% and 0%, respectively.
In the case of `CC#CCn1c(N2CCC[C@@H](N)C2)nc2c1c(=O)n(Cc1nc(C)c3ccccc3n1)c(=O)n2C` [linagliptin], in data set [3], the “excreted unmodified in the feces” value is reported as 87%.
Consider `O=C1CSC(c2c(F)cccc2Cl)N1c1nc2ccc(C34CC5CC(CC(C5)C3)C4)cc2s1` (stereo not shown) [m2, 3-(6-Ad-benzo[d]thiazol-2-yl)-2-(2-F,6-Cl-phenyl) thiazolidin-4-one], for which the “Κm of the enzyme” value at DPP4 [2] (compound concentration 0.060 μΜ) turned out to be 30.6 ± 2.7. Besides, the “Inhibition Mode” value on DPP4 [2] is given as “uncompetitive”. The IC50 against DPP4 [1] (IC50, DPP4, triplicate) worked out at 71.5 ± 8.3 nM. The inhibition at 0.08 µM at DPP4 [1] (setting [4]) amounted to 52%; at DPP4 [1] (setting [5]) it was 69.7%.
Consider `Cc1cc(C23CC4CC(CC(C4)C2)C3)cc2sc(N3C(=O)CSC3c3c(Cl)cccc3Cl)nc12` (stereo not shown) [n1, 3-(4-CH3,6-Ad-benzo[d]thiazol-2-yl)-2-(2,6-di-Cl-phenyl) thiazolidin-4-one], for which the “Κm of the enzyme” value at DPP4 [2] (setting [8]) turned out to be 49.8 ± 0.6. Further, the “Inhibition Mode” value on DPP4 [2] is on record as “non-competitive”. The compound further registered an IC50 against DPP4 [1] (IC50, DPP4, triplicate) of 137 ± 4.6 nM. The values for the inhibition at 0.08 µM on DPP4 [1] (setting [4]) and at DPP4 [1] (setting [5]) were 36.8% and 37.2%, respectively.
Take `Cc1cc(C23CC4CC(CC(C4)C2)C3)cc2sc(N3C(=O)CSC3c3c(F)cccc3F)nc12` (stereo not shown) [n2]: the “Κm of the enzyme” value at DPP4 [2] (setting [8]) is recorded as 117.2 ± 1.5. For the same compound, the “Inhibition Mode” value at DPP4 [2] is “competitive”. Also, the logIC50 at DPP4 [1] was found to be 1.681. The IC50 at DPP4 [1] (IC50 (as printed in Figure 4), printed in the picture of Figure 4 without unit) was 48 nM; at DPP4 [1] (IC50, DPP4, triplicate), 48.3 ± 5.2 nM. Also, the inhibition at 0.08 µM amounted to 66.3% at DPP4 [1] (setting [4]) and 0% on DPP4 [1] (setting [5]).
`N[C@@H](CC(=O)N1CCn2c(nnc2C(F)(F)F)C1)Cc1cc(F)c(F)cc1F` [sitagliptin]: the “ends unmodified in the urine” value in data set [3] is 79%.
